The source of these data is US9808434B2, “Compound for treating cancer and diabetes” (CITY OF HOPE, priority 2011, dated 2017).

Series [1] relates to SKOV3, MADH2744 and A2780 DPPr cells. Briefly: Ovarian cancer cell viability, cellular acid phosphatase activity. It counts as cell-based, human. The settings on record: 48 hours, 0-10 μM. The method, then:
SKOV3 is a cisplatin resistant human ovarian cancer cell line. Human ovarian cancer cells (SKOV3, MADH2744, and […]) were incubated with COH-SR4 at various concentrations (0˜10 μM) or without COH-SR4 for 48 hours. Cells Viabilities were determined by measuring cellular acid phosphatase activities. Data were represented as a ratio to vehicle (DMSO) control.

The test system of series [2] is PBT018. Briefly: Glioma ATP viability assay, PBT018. It counts as cell-based. The settings on record: Table 1; 72 hours. The method, then: Cells of each cell line (U251, U87, PBT-017, PBT018, PBT003 and PBT028) were treated with various concentrations (0˜100 μM) of COH-SR4 for 72 hours. Cell viabilities were determined by ATP viability assays. Data were represented as a ratio to vehicle (DMSO) control, and plotted as mean±SEM (n=12) obtained from 2˜3 experiments (FIG. 34A).

In series [3] the test system is A2058 cells. The series can be described thus: Annexin V / propidium iodide flow cytometry, A2058. Type of series: cell-based, human. The method, then: Apoptosis of cells were measured based on loss of membrane integrity using Annexin V-FITC Apoptosis Detection Kit as described by the supplier (BD Biosciences Pharmingen, San Diego, Calif.), in which the early- and late-death cells were stained with Annexin V-FITC and propidium iodide. Cells were analyzed using a CyAn ADP cytometer (Beckman Coulter Inc) to quantify fluorescence. Apoptotic cells were defined as Annexin V-FITC positive.
A general note: In flow cytometry, cells or beads pass a laser one at a time.

The test system of series [4] is H-358 and H-520 cells. The series can be described thus: Cell cycle FACS analysis, lung cancer. It counts as cell-based, human. The method, then: 2×10^5 cells were treated with COH-SR4 (0 μM, 5 μM or 10 μM) for 18 h at 37° C. After treatment, floating and adherent cells were collected, washed with PBS, and fixed with 70% ethanol. On the day of flow analysis, cell suspensions were centrifuged; counted and same numbers of cells were resuspended in 500 μL PBS in flow cytometry tubes. Cells were then incubated with 2.5 μL of RNase (stock 20 mg/mL) at 37° C. for 30 min after which they were treated with 10 μL of propidium iodide (stock 1 mg/mL) solution and then incubated at room temperature for 30 min in the dark. The stained cells were analyzed using the Beckman Coulter Cytomics FC500, Flow Cytometry Analyzer. Results were processed using CXP2.2 analysis software from Beckman Coulter.
In the context of the elevation of GSTs in lung cancer, the impact of COH-SR4 on the catalytic activity of GSTs towards 1-chloro 2,4-dinitro benzene (CDNB), a model substrate used for GST activity was analyzed. GST activity towards 1-chloro 2,4-dinitro benzene (CDNB) and its inhibition by COH-SR4 was performed in 28000×g crude supernatant prepared from H1417, H1618, H520 and H358 cells. The inhibitory effect of COH-SR4 on GST was studied at a fixed concentration of GSH and CDNB (1 mM each) and varying concentrations of inhibitor. The enzymes were pre-incubated with the inhibitor for 5 min at 37° C. prior to the addition of the substrates. […]

In series [5] the test system is AMPK, ACC, Raptor, TSC2. The series can be described thus: AMPK-mTOR signaling in lung cancer cells, Western-blot. Type of series: cell-based, human. The method, then: Cell or tissue proteins were extracted with cell lysis buffer (Cell Signaling Technology) and protein concentration was determined using the DC Protein Assay kit (Bio-Rad, Hercules, Calif., USA). Equal amount of proteins (˜40 μg) were loaded onto 4-15% Criterion TGX gels (Bio-Rad, Hercules, Calif.), resolved by SDS-PAGE electrophoresis, and then transferred onto nitrocellulose membranes for immunoblotting. Membranes were blocked with 5% skimmed milk in Tris-buffered saline containing 0.05% Tween 20 before incubation overnight at 4° C. with desired primary antibodies. Immuno-reactive proteins were visualized by peroxidase-labeled secondary antibodies and ECL system (Western Lightning Chemiluminescence Reagent, Perkin-Elmer, Mass., USA). Equal loading of proteins was confirmed by stripping and re-probing the membranes with either β-actin or GAPDH antibodies. Band intensities were quantified using a densitometer (Quantity One, Bio-Rad, Hercules, Calif.).
AMPK was knocked down by siRNA and assessed the impact on COH-SR4-induced cytotoxicity. […] Thus, the in-vitro analyses of critical signaling proteins of cell proliferation further supported the anti-cancer effects of COH-SR4 in lung cancer cells.

Series [6] is described as follows: Metabolic effects in Type 2 diabetes db/db mice. It counts as in vivo, mouse. The settings on record: five weeks. The method, then:
All animal experiments were carried out in accordance with the protocols approved by the Institutional Animal Care and Use Committee of the City of Hope. Nine-week old male C57BL/6J mice fed on high fat diet (HFD, 60% fat) and 10-week old db/db mice were given COH-SR4 (5 mg/kg B.W.) or vehicle (corn oil) via oral gavage every other day for six and five weeks, respectively. Oral glucose tolerance test was performed on animals after an overnight fast. All other metabolic parameters were measured at the end of study. Liver samples were stained with H&E and Oil Red O.
All data represented are mean±SEM. *P<0.05, **P<0.01 vs. LFD or db/+; ^#P<0.05, ^##P<0.01 vs. HFD or db/db. n=12 animals per group for HFD mice. LFD=low fat diet (lean), HFD=high fat diet (obese). n=8 animals per group for db/db mice.
Representative mice in each treatment group (db/+, db/db, db/db treated with COH-SR4 (db/db+SR4)) depicted gross images of whole body shape (top) and abdominal fat (bottom) (FIG. 85H).

pIC50: −log10 of the molar value.

Regarding `O=C(Nc1cc(Cl)cc(Cl)c1)Nc1cc(Cl)cc(Cl)c1` [COH-SR4, 1,3-bis(3,5-dichlorophenyl) urea], the “cytotoxicity on regular and cisplatin-resistant ovarian cancer cells” value in series [1] was “dose-dependent cytotoxicity and anti-proliferative effects”. Besides, in series [2], the pIC50 – broadly, −log10 of the IC50, conventionally taken in molar units – was 5.19. In addition, the “apoptosis (annexin V / propidium iodide)” value in series [3] is given as “caused apoptosis in A2058 cells in a dose-dependent manner”. The cell cycle arrest entry in series [4] is “induced G0/G1 phase arrest in a concentration dependent manner”. In series [5], the “phosphorylation of AMPK, ACC, Raptor, TSC2” value is given as “increased phosphorylation of AMPK (pAMPK)”. Further, the body weight entry in series [6] (5 mg/kg oral every other day) is “decreased body weight”. Besides, in series [6], the HbA1c levels entry is on record as “lower HbA1c levels”, the fasting blood glucose entry is given as “improved fasting blood glucose”, the glucose tolerance result is “improved” and the hepatic steatosis result is on record as “reduced”. In addition, the hepatic triglycerides result in series [6] was “reduced hepatic triglycerides”.
